For assay [1], the target named is T1, PCSK9 (Homo sapiens, UniProt Q8NBP7). More on the design: host or cells: patients. The note with it: clinical trials, patients; alirocumab compared to placebo; cited from earlier work.
Target sequence in this assay (Q8NBP7 153-692): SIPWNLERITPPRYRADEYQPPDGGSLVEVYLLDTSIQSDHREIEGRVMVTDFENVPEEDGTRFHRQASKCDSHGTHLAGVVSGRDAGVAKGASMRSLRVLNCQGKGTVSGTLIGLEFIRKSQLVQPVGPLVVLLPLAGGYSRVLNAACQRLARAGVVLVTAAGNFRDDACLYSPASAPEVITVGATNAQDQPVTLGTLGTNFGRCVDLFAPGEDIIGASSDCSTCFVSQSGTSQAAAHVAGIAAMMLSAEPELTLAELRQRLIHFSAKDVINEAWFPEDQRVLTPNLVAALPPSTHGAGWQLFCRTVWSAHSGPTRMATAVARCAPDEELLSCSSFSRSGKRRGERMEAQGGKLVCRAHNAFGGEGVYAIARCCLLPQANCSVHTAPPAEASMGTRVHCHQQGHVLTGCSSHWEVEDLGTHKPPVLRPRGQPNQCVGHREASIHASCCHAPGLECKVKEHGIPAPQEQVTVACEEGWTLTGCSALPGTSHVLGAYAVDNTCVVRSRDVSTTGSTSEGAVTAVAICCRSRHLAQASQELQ
Assay [2] has as its target GSK3β (Glycogen synthase kinase-3 beta) (Homo sapiens, UniProt P49841). Kind of assay: Assay 6 GSK3β assay (ThermoFisher Z-Lyte FRET). Format: biochemical. The following applies: ATP Conc: 10 μM, geometric mean; read-out: Assay 6 (GSK3β FRET-Z-Lyte Cr) GMean IC50. The method in brief:
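Z-Lyte FRET: 0.22-0.92 ng kinase with 2 μM Ser/Thr 09 peptide in HEPES pH 7.5, MgCl2, EGTA, 60 min at room temperature, then 60 min development. Compounds in 1% DMSO, 10-point 3-fold series from 10 μM; sigmoidal dose-response fit.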

Assay [3] deals with T1, PCSK9. Description: Assay 2 Biophysical human PCSK9 assay (SPR, Biacore). The note with it: single-cycle kinetics, 30° C., geometric mean, read-out: Assay 2 (PCSK9 BIAcore DBA Cr) GMean Kd. On the set-up: biotinylated human PCSK9 (31-692)-Avi-His6; His6 (C). Format: binding. The method, then: The SPR binding experiments were performed on a Biacore S200 optical biosensor unit at 30° C. A Series S Sensor Chip SA that is designed to bind biotinylated molecules for interaction analysis in Biacore systems was equilibrated at room temperature prior to use. The running buffer for protein tethering and subsequent ligand binding experiments was 10 mM HEPES pH 7.4, 150 mM NaCl, 0.05% (v/v) Tween 20 pH 7.4.
For the surface tethering of PCSK9, biotinylated human PCSK9 (31-692)-Avi-His6 at a concentration of 0.5 mg/mL was used. Prior to the surface tethering, the surface was exposed to a solution of 50 mM NaOH, 500 mM NaCl via 3 consecutive injections of this solution with a contact time of 60 s and a flowrate of 10 μL min^−1 to remove non-conjugated streptavidin. The PCSK9 protein was diluted to a concentration of 20 μg/mL using running buffer and injected with a contact time of 180-300 s and a flowrate of 10 μL min^−1 over a single flow channel (typically flow channel 2 or flow channel 4) with the aim to achieve protein capture levels of >5000 response units (RU). Remaining biotin binding sites were blocked via 2 consecutive injections of a 10 μM D-biotin solution in running buffer with a contact time of 60 s and a flowrate of 10 μL min^−1 over all flow-channels. Flow-channels 1 and 3 typically served as a reference surface throughout the subsequent binding experiments.
The binding experiments were all performed at a flow rate of 30 PL min^−1 and by employing the method of single-cycle kinetics. This approach involves the sequential injection of a compound concentration series without regeneration steps. A contact time between 90-150 s was selected, which was followed by a 40 min dissociation phase to allow for a proper estimation of the dissociation rate constant. Test compounds were delivered in DMSO at a concentration of 10 mM and a digital dispenser HP D300 was used to set up the compound concentration series using 6 concentrations. The tested concentrations have been 30, 100, 300, 1000, 3000 and 10000 nM. Prior to injecting any compound, the surfaces were equilibrated by injecting running buffer over them in three separate pulses. The data collection rate was set to 10 Hz.
The raw sensorgrams of the compound injections were first subjected to reference subtraction (subtracting the signal from flow channel 1 and/or 3 from the signal from channels 2 and/or 4 respectively) and then blank subtraction (subtracting the signal from injecting DMSO controls from the reference subtracted data). The resulting double-referenced sensorgrams were then fitted using a 1:1 binding interaction model using the manufactures software package to extract kinetic- and affinity data. Active compounds have been defined by creating a detectable binding signal at the highest compound concentration ([…]) of 3 RUs. Kinetic- and affinity data on active compounds are only provided for those compounds where the binding signal at the highest compound concentration ([…]) is 50% of the theoretical maximum binding signal for a 1:1 binding interaction (Rmax, typically between 15-20 RUs) in order to enable a proper fitting of the data.
Target sequence in this assay (Q8NBP7 31-692): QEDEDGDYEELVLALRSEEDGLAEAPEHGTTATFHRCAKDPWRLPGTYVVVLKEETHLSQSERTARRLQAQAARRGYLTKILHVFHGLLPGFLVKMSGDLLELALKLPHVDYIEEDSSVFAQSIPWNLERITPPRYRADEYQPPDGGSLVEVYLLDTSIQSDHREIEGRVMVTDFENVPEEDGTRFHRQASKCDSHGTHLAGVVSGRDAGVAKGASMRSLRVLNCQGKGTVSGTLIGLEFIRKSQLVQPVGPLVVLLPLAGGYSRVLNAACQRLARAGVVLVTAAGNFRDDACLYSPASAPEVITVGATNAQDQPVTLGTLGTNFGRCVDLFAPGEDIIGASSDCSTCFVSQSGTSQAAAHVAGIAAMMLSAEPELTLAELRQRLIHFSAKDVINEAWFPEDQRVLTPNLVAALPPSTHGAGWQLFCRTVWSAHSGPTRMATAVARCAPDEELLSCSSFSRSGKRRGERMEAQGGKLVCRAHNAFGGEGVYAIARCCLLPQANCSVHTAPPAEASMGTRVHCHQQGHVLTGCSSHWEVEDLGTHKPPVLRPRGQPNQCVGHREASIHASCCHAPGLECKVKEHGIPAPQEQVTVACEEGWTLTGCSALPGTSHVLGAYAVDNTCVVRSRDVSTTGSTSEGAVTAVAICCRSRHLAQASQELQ

In assay [4] the target is T2, potassium ion channel hERG (Homo sapiens, UniProt Q12809).
T2 construct: expressed in transfected cells; host or cells: Chinese hamster ovary K1 (CHO)
T2 sequence (Q12809 whole entry): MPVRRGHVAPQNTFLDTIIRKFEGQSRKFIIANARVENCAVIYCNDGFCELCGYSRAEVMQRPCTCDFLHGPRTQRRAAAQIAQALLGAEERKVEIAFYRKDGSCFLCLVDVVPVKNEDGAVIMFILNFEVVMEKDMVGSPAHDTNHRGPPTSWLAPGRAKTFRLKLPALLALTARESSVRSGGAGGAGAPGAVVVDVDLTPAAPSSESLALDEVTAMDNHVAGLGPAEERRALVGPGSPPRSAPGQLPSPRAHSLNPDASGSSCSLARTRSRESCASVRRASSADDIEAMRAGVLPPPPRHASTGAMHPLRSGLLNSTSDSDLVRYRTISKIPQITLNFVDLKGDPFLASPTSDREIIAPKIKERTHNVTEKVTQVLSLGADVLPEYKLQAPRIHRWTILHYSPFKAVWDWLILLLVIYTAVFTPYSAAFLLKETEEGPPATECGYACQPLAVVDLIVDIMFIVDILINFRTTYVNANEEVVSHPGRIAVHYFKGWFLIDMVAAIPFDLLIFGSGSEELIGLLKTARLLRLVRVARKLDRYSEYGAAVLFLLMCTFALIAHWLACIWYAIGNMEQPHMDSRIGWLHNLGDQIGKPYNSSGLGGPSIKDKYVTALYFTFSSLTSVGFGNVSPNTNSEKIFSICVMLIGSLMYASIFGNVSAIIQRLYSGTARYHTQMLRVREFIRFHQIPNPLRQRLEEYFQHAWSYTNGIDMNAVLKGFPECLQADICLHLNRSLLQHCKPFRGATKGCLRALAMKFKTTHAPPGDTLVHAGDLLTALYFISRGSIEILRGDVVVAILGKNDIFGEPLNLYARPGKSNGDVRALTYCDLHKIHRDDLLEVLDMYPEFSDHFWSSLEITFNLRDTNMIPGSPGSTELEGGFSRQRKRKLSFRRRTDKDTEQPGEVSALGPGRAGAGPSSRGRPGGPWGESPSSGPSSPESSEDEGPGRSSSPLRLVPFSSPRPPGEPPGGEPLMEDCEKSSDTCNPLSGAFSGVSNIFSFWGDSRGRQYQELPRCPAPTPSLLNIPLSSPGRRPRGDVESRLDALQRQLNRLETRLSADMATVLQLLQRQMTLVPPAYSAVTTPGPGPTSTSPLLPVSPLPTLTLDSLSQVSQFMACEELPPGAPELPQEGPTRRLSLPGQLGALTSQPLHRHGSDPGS
Kind of assay: Assay 5 hERG assay (patch clamp, CHO cells over-expressing hERG). The following applies: SyncroPatch 384PE, room temperature, geometric mean, read-out: Assay 5 (hERG Hu CHO if EPh CR-Syncro) GMean IC50. The class given is cell-based. The method in brief:
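hERG currents recorded by automated patch clamp at room temperature in CHO-K1 cells, 6-point cumulative concentrations. SyncroPatch runs used KF-based internal (pH 7.2) and NMDG-containing external solution (pH 7.4), 0.33% DMSO; QPatchII runs used 2% or 0.4% DMSO. Only wells meeting seal-resistance and current-size criteria kept.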
In general terms: hERG is a cardiac potassium channel; its block is linked to QT prolongation.

Assay [5] concerns the target PCSK9 (Homo sapiens, UniProt Q8NBP7, G670E/V474I). Description: biochemical.

pIC50, pKd: −log10 of the molar value.

What is called pIC50 is the IC50 on a negative log10 scale, so that one unit is a factor of ten. What is called pKd is the negative decadic logarithm of the Kd, by convention in mol/L.

Sequence of GSK3β (Glycogen synthase kinase-3 beta) (P49841 whole entry): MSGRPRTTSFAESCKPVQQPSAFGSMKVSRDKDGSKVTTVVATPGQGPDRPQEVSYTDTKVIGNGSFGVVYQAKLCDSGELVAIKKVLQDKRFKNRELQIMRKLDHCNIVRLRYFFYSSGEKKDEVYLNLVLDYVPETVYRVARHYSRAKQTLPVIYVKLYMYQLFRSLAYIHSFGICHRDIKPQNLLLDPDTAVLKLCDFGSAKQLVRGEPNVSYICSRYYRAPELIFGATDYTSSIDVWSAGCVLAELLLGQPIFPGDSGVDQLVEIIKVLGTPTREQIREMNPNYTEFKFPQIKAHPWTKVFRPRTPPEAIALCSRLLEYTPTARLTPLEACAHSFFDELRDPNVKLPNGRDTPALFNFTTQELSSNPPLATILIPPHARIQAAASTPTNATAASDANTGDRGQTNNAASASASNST
Sequence of PCSK9 (Homo sapiens, UniProt Q8NBP7, G670E/V474I) (Q8NBP7 with tags, fused parts or gaps V474I/G670E): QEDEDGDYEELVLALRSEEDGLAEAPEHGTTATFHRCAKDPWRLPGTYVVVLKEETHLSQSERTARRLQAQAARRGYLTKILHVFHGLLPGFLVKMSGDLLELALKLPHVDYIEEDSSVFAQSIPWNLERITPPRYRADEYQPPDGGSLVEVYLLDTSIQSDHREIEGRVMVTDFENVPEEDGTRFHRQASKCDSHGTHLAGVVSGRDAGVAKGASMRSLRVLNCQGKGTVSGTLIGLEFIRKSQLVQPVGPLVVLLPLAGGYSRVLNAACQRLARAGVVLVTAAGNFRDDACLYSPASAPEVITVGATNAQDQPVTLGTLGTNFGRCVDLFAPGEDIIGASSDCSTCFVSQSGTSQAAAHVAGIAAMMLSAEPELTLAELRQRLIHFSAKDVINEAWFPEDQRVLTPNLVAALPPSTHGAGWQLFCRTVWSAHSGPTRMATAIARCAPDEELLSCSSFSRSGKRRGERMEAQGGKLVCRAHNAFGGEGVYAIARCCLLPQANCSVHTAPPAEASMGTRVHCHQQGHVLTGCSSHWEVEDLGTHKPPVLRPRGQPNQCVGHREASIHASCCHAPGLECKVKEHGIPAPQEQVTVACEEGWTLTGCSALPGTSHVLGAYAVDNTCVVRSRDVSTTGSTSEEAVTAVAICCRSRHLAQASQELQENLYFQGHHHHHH

As to alirocumab, the “decrease in LDL levels” value with PCSK9 [1] is listed as “about 50%”.
As for `Cc1cnnc(N[C@H]2CC[C@H](Nc3ccc(-n4ccccc4=O)cn3)C2)n1` [Example 126, 6′-(((1S,3S)-3-((5-Methyl-1,2,4-triazin-3-yl)amino)cyclopentyl)amino)-2H-[1,3′-bipyridin]-2-one], the values for the pIC50 (in assay [2]; in assay [4]; on PCSK9 [5]) were under 5.00, under 4.40 and 6.13, respectively. For the same compound, the pKd on PCSK9 [3] is 6.02.
For `Cc1cnc(N[C@H]2CC[C@H](Nc3ccc(-n4ncc5cccnc54)cn3)C2)nn1` [Example 310, (1S,3S)—N′-(5-(1H-Pyrazolo[3,4-b]pyridin-1-yl)pyridin-2-yl)-N^3-(6-methyl-1,2,4-triazin-3-yl)cyclopentane-1,3-diamine] the same measures were under 5.00, 4.46, 7.66 and 7.72.
In the same order, the values of `Cc1cnc(N[C@H]2CC[C@H](Nc3ccc(-n4ncc5ccccc54)cn3)C2)nn1` [Example 311, (1S,3S)—N′-(5-(1H-Indazol-1-yl)pyridin-2-yl)-N^3-(6-methyl-1,2,4-triazin-3-yl)cyclopentane-1,3-diamine] are under 5.00, 5.12, 8.26 and 8.16.
In the same order, the values of `O=C(NCC(F)F)c1cnc(N[C@H]2CC[C@H](Nc3ccc(-n4ccccc4=O)cn3)C2)nn1` [Example 71, N-(2,2-Difluoroethyl)-3-(((1S,3S)-3-((2-oxo-2H-[1,3′-bipyridin]-6′-yl)amino)cyclopentyl)amino)-1,2,4-triazine-6-carboxamide] are under 5.00, under 4.40, 7.34 and 7.20.
`CCNC(=O)c1cnc(N[C@H]2CC[C@H](Nc3ccc(-n4ccccc4=O)cn3)C2)nn1` [Example 73, N-Ethyl-3-(((1S,3S)-3-((2-oxo-2H-[1,3′-bipyridin]-6′-yl)amino)cyclopentyl)amino)-1,2,4-triazine-6-carboxamide]: the pIC50 is under 5.00 in assay [2], under 4.40 in assay [4] and 7.12 at PCSK9 [5]. The pKd on PCSK9 [3] was 7.32.
For `O=C(NCCO)c1cnc(N[C@H]2CC[C@H](Nc3ccc(-n4ccccc4=O)cn3)C2)nn1` [Example 72, N-(2-Hydroxyethyl)-3-(((1S,3S)-3-((2-oxo-2H-[1,3′-bipyridin]-6′-yl)amino)cyclopentyl)amino)-1,2,4-triazine-6-carboxamide] the same measures were under 5.00, under 4.40, 6.69 and 6.77.

Source of the values: patent US20240228469A1, “PCSK9 INHIBITORS AND METHODS OF USE THEREOF” (AstraZeneca AB, priority 2022, published 2024).
